This note sets out measurements from ChEMBL document CHEMBL4118242, “Computer-aided discovery and biological characterization of human lactate dehydrogenase 5 inhibitors with anti-osteosarcoma activity” (Bioorg Med Chem Lett, 2018).

Experiment [1] addresses T1, L-lactate dehydrogenase A chain (Homo sapiens, UniProt P00338). The experiment can be described thus: Inhibition of human LDH5 at 10 uM using pyruvate as substrate after 10 mins.
Experiment [2] deals with MG-63. Kind of experiment: Antiproliferative activity against human MG63 cells at 10 uM after 72 hrs by MTT assay. The class given is functional, cell-based. For orientation: Tetrazolium dyes change colour on reduction, which living cells bring about.
Experiment [3] relates to MG-63. Kind of experiment: Antiproliferative activity against human MG63 cells at 4 uM after 72 hrs by MTT assay. The experiment is classed as functional, cell-based.
Experiment [4] relates to MG-63. Kind of experiment: Antiproliferative activity against human MG63 cells after 72 hrs by MTT assay. The experiment is classed as functional, cell-based. The conditions noted are these: MG-63, 72 h.
The target in experiment [5] is T1, L-lactate dehydrogenase A chain. Kind of experiment: Inhibition of LDH5 in human MG63 cells assessed as increase in oxygen consumption rate at 1 uM after 4 hrs. The experiment is classed as cell-based.
The target is the same in experiment [6]. Kind of experiment: Inhibition of human LDH5 at 1 uM using pyruvate as substrate after 10 mins.
For experiment [7] the target is unchanged. Kind of experiment: Inhibition of human LDH5 using pyruvate as substrate after 10 mins.
For experiment [8] the target is unchanged. Kind of experiment: Inhibition of LDH5 in human MG63 cells assessed as decrease in lactate formation after 4 hrs. The class given is cell-based.
Experiment [9] concerns MG-63. Kind of experiment: Antiproliferative activity in human MG63 cells at 4 uM after 24 to 72 hrs by IncuCyte zoom live cell imaging method. The class given is functional, cell-based.
The target in experiment [10] is T1, L-lactate dehydrogenase A chain. Kind of experiment: Inhibition of LDH5 in human MG63 cells assessed as increase in oxygen consumption rate at 1 to 10 uM after 4 hrs. The experiment is classed as cell-based.
Experiment [11] has the same target. The experiment can be described thus: Inhibition of LDH5 in human MG63 cells assessed as induction of ROS generation at 5 to 10 uM after 4 hrs by DCFH-DA staining-based fluorescence assay. The experiment is classed as cell-based.
For experiment [12] the target is unchanged. The experiment can be described thus: Inhibition of LDH5 in human MG63 cells assessed as decrease in extracellular acidification rate after 4 hrs. The experiment is classed as cell-based.

Structures are written as SMILES. Calls of active or inactive are those of the source. The rule behind the calls is not given here.

`COc1ccc([C@@H](NCc2c[nH]nc2-c2ccc(F)cc2)c2ccncc2)cc1`: the inhibition result in experiment [1] was “inactive”.

Turning to `O=C(Cn1ccnc1-c1ccccc1)NC[C@@H]1COc2ccccc2O1`, the result with MG-63 [2] was Active. In the experiment with MG-63 [3], the outcome was inactive.

For `O=C1N[C@](c2ccc(N3CCOCC3)cc2)(c2ccsc2)CC(O)=C1Sc1ccccc1Cl`, in the experiment on MG-63 [4], 660 nM corresponded to half-maximal inhibition (IC50). Also, the result in experiment [5] was Active.

In the case of `Cc1nc(C)c(CC(=O)N2CCN(CCOc3ccccc3)CC2)c(=O)[nH]1`, in [1], the inhibition entry was “inactive”.

Take `Cc1cccc(OC[C@H](O)CN2CCN(CCN3C(=O)c4cccc5cccc(c45)C3=O)CC2)c1C`: the result in the experiment with MG-63 [2] was Active. Moreover, in the experiment with MG-63 [3], the outcome was inactive. For the same compound, in [6], the inhibition result was “Active”. In addition, in [7], the concentration for a half-maximal effect (EC50) amounted to 670 nM.

Take `COc1cccc(CN2CCCCC23CC3)c1OC[C@@H](O)CN1CCOCC1`: the result (in the experiment on MG-63 [2]; with MG-63 [9]; in [10]; in experiment [11]) was Active. Also, the inhibition entry in experiment [8] and in experiment [12] was “Dose-dependent effect” throughout. The compound also came in with an IC50 with MG-63 [4] of 3180 nM. Moreover, in [6], the inhibition entry was “Active”. This compound displayed an EC50 in [7] of 390 nM.

The IC50 is the concentration that gives 50% inhibition. As a reminder, the EC50 is the midpoint of the concentration-response curve. Lower therefore signals a more potent agent.
